For 17 compounds, T/C results are on record in PubChem BioAssay AID330 (DTP/NCI, 2004).

This experiment deals with P388 leukemia ip, CD2F1 mice, survival T/C. Put plainly: NCI In Vivo Anticancer Drug Screen. Data for tumor model P388 Leukemia (intraperitoneal) in CD2F1 (CDF1) mice. To be noted: endpoint: median survival time, higher = longer survival. The method in brief: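 Mice carrying the transplanted tumor received test compound or vehicle. Survival was recorded in each group, and the value is the treated-group measurement divided by that of the vehicle-treated control group.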

Setting [1] is: dose: 60.0 mg/kg/injection, schedule: Q01DX005 (ip), vehicle: saline.
Where [2] appears, read: dose: 120.0 mg/kg/injection, schedule: Q01DX005 (ip), vehicle: saline.
[3] abbreviates: dose: 60.0 mg/kg/injection, schedule: Q01DX005 (ip), vehicle: saline with Tween-80.
[4] abbreviates: dose: 120.0 mg/kg/injection, schedule: Q01DX005 (ip), vehicle: saline with Tween-80.
The mark [5] stands for this setting: dose: 100.0 mg/kg/injection, schedule: Q01DX009 (ip), vehicle: saline with Tween-80.
[6] abbreviates: dose: 200.0 mg/kg/injection, schedule: Q01DX009 (ip), vehicle: saline with Tween-80.
The mark [7] stands for this setting: dose: 12.5 mg/kg/injection, schedule: Q01DX009 (ip), vehicle: saline with Tween-80.

Where “and” joins values, the source holds several entries; their conditions need not be identical. Identical values can stand only once. Toxic doses and inconclusive results are not listed.

As to `CCOC(=O)CCC(NC(=O)c1ccc(NCc2ccc3nc(N)nc(N)c3c2C)cc1)C(=O)OCC` (centres undefined), the T/C runs as follows: (dose: 0.01 mg/kg/injection, schedule: Q01DX009 (ip), vehicle: saline + alcohol) 108 % of control and 109 % of control; (dose: 0.02 mg/kg/injection, schedule: Q01DX009 (ip), vehicle: saline + alcohol) 98 % of control and 113 % of control; (dose: 0.03 mg/kg/injection, schedule: Q01DX009 (ip), vehicle: saline + alcohol) 153 % of control and 162 % of control; (dose: 0.06 mg/kg/injection, schedule: Q01DX001 (ip), vehicle: saline + alcohol) 100 % of control and 88 % of control; (dose: 0.06 mg/kg/injection, schedule: Q01DX009 (ip), vehicle: saline + alcohol) 170 % of control; (dose: 0.13 mg/kg/injection, schedule: Q01DX001 (ip), vehicle: saline + alcohol) 111 % of control and 117 % of control. The T/C (dose: 0.25 mg/kg/injection, schedule: Q01DX001 (ip), vehicle: saline + alcohol) is 109 % of control and 110 % of control.

In the case of `Cc1ccc(/C=C/C(=O)C(C)(C)CN(C)CCN(C)C)cc1`, the T/C runs as follows: under setting [1], 103 % of control; under setting [2], 98 % of control.

For `COc1nc(NC2OCC(O)C(O)C2O)c(Cl)c(=O)n1C` (centres undefined), the T/C is 93 % of control under setting [3]; 90 % of control under setting [4]; 100 % of control (dose: 240.0 mg/kg/injection, schedule: Q01DX005 (ip), vehicle: saline with Tween-80).

On to `CC1=C(N(C)C)C(=O)N(c2ccccc2)CN1C`, for which the T/C (dose: 3.75 mg/kg/injection, schedule: Q01DX005 (ip), vehicle: saline with Tween-80) was 111 % of control; the T/C (dose: 7.5 mg/kg/injection, schedule: Q01DX005 (ip), vehicle: saline with Tween-80) is 102 % of control; the T/C (dose: 15.0 mg/kg/injection, schedule: Q01DX005 (ip), vehicle: saline with Tween-80) is 101 % of control and 103 % of control.

Turning to `O=C1c2ccccc2C(=O)c2c(NCCN3CCOCC3)ccc(NCCN3CCOCC3)c21`, the T/C is, setting by setting: (dose: 50.0 mg/kg/injection, schedule: Q01DX009 (ip), vehicle: saline with Tween-80) 108 % of control; under setting [5], 109 % of control; under setting [6], 115 % of control; (dose: 400.0 mg/kg/injection, schedule: Q01DX009 (ip), vehicle: saline with Tween-80) 117 % of control.

For the compound `CCCn1c(CC)nc([N+](=O)[O-])c1Sc1ncn[nH]1`, the T/C reads like this: (dose: 25.0 mg/kg/injection, schedule: Q01DX005 (ip), vehicle: Klucel (hydroxypropylcellulose) (HPC)) 123 % of control; (dose: 50.0 mg/kg/injection, schedule: Q01DX005 (ip), vehicle: Klucel (hydroxypropylcellulose) (HPC)) 108 % of control; (dose: 200.0 mg/kg/injection, schedule: Q01DX005 (ip), vehicle: Klucel (hydroxypropylcellulose) (HPC)) 113 % of control.

`CCCCCCC(/C=C/c1ccc(Cl)c(Cl)c1)=N\Nc1ccc(Cl)cc1Cl`: the T/C under setting [7] was 94 % of control; the T/C (dose: 25.0 mg/kg/injection, schedule: Q01DX009 (ip), vehicle: saline with Tween-80) was 94 % of control; the T/C under setting [5] was 88 % of control; the T/C under setting [6] was 87 % of control.

Regarding `CCOP(=O)(CSCCC1(C)NC(=O)NC1=O)OCC` (centres undefined), the T/C is, setting by setting: under setting [1], 102 % of control; under setting [2], 103 % of control; (dose: 240.0 mg/kg/injection, schedule: Q01DX005 (ip), vehicle: saline) 102 % of control.

In the case of `CC(SC(SC(C)C(=O)O)c1ccccc1)C(=O)O` (centres undefined), the T/C by setting is: (dose: 100.0 mg/kg/injection, schedule: Q01DX001 (ip), vehicle: other) 105 % of control; (dose: 200.0 mg/kg/injection, schedule: Q01DX001 (ip), vehicle: other) 107 % of control; (dose: 400.0 mg/kg/injection, schedule: Q01DX001 (ip), vehicle: other) 98 % of control.

As to `COc1cc2c(c(OC)c1OC)-c1cc3c(cc1C(OC1c4cc5c(cc4-c4c(cc(OC)c(OC)c4OC)CC4C(=O)OCC41)OCO5)C1COC(=O)C1C2)OCO3` (centres undefined), the T/C (dose: 2.5 mg/kg/injection, schedule: Q01DX005 (ip), vehicle: Klucel (hydroxypropylcellulose) (HPC)) was 109 % of control; the T/C (dose: 5.0 mg/kg/injection, schedule: Q01DX005 (ip), vehicle: Klucel (hydroxypropylcellulose) (HPC)) is 98 % of control; the T/C (dose: 10.0 mg/kg/injection, schedule: Q01DX005 (ip), vehicle: Klucel (hydroxypropylcellulose) (HPC)) is 92 % of control; the T/C (dose: 20.0 mg/kg/injection, schedule: Q01DX005 (ip), vehicle: Klucel (hydroxypropylcellulose) (HPC)) was 109 % of control.

`COc1cccc2c1C(=N)c1c(O)c3c(c(O)c1C2=O)C[C@@](O)(C(=O)CO)C[C@@H]3OC1CC(N)C(O)C(C)O1` (some centres undefined): the T/C is 115 % of control (dose: 1.56 mg/kg/injection, schedule: Q04DX003 (ip), vehicle: water); 118 % of control (dose: 3.13 mg/kg/injection, schedule: Q04DX003 (ip), vehicle: water); 122 % of control (dose: 6.25 mg/kg/injection, schedule: Q04DX003 (ip), vehicle: water); 155 % of control and 163 % of control (dose: 25.0 mg/kg/injection, schedule: Q04DX003 (ip), vehicle: water); 173 % of control and 188 % of control (dose: 50.0 mg/kg/injection, schedule: Q04DX003 (ip), vehicle: water); 194 % of control and 217 % of control (dose: 100.0 mg/kg/injection, schedule: Q04DX003 (ip), vehicle: water). Under “dose: 150.0 mg/kg/injection, schedule: Q04DX003 (ip), vehicle: water”, the T/C was 165 % of control.

As for `CC(C)c1cccc(C(C)C)c1NC(=O)OCCN(C)C`, the T/C runs as follows: under setting [3], 100 % of control; under setting [4], 115 % of control.

As to `CC(C)(C)C(=Nc1ccccc1)OC(c1ccccc1)(C(F)(F)F)C(F)(F)F`, the T/C by setting is: (dose: 100.0 mg/kg/injection, schedule: Q04DX002 (ip), vehicle: Klucel (hydroxypropylcellulose) (HPC)) 105 % of control; (dose: 200.0 mg/kg/injection, schedule: Q04DX002 (ip), vehicle: Klucel (hydroxypropylcellulose) (HPC)) 101 % of control; (dose: 400.0 mg/kg/injection, schedule: Q04DX002 (ip), vehicle: Klucel (hydroxypropylcellulose) (HPC)) 90 % of control.

With `CCCC(=O)NC1CCc2cc(OC)c(OC)c(OC)c2-c2ccc(OC)c(=O)cc21` (centres undefined), the T/C was 152 % of control (dose: 0.62 mg/kg/injection, schedule: Q01DX009 (ip), vehicle: Klucel (hydroxypropylcellulose) (HPC)); 178 % of control (dose: 0.63 mg/kg/injection, schedule: Q01DX009 (ip), vehicle: Klucel (hydroxypropylcellulose) (HPC)); 152 % of control and 233 % of control (dose: 1.25 mg/kg/injection, schedule: Q01DX009 (ip), vehicle: Klucel (hydroxypropylcellulose) (HPC)); 221 % of control (dose: 2.5 mg/kg/injection, schedule: Q01DX009 (ip), vehicle: Klucel (hydroxypropylcellulose) (HPC)).

On to `COC(=N)c1nnn(-c2ccccc2)n1`, for which the T/C is, setting by setting: (dose: 100.0 mg/kg/injection, schedule: Q04DX003 (ip), vehicle: Klucel (hydroxypropylcellulose) (HPC)) 97 % of control; (dose: 200.0 mg/kg/injection, schedule: Q04DX003 (ip), vehicle: Klucel (hydroxypropylcellulose) (HPC)) 97 % of control; (dose: 400.0 mg/kg/injection, schedule: Q04DX003 (ip), vehicle: Klucel (hydroxypropylcellulose) (HPC)) 95 % of control.

Regarding `CCCCOP(O)(=S)OCCCC.[Y]`, the T/C runs as follows: (dose: 25.0 mg/kg/injection, schedule: Q01DX009 (ip), vehicle: saline + alcohol) 98 % of control; (dose: 50.0 mg/kg/injection, schedule: Q01DX009 (ip), vehicle: saline + alcohol) 99 % of control; (dose: 100.0 mg/kg/injection, schedule: Q01DX009 (ip), vehicle: saline + alcohol) 98 % of control; (dose: 100.0 mg/kg/injection, schedule: Q04DX002 (ip), vehicle: saline with Tween-80) 102 % of control; (dose: 200.0 mg/kg/injection, schedule: Q01DX009 (ip), vehicle: saline + alcohol) 91 % of control; (dose: 200.0 mg/kg/injection, schedule: Q04DX002 (ip), vehicle: saline with Tween-80) 96 % of control. Also, the T/C (dose: 400.0 mg/kg/injection, schedule: Q04DX002 (ip), vehicle: saline with Tween-80) is 96 % of control.

Consider `CC(=O)OCC1OC([Se][As](C)C)C(OC(C)=O)C(OC(C)=O)C1OC(C)=O` (centres undefined), for which the T/C is, setting by setting: (dose: 1.56 mg/kg/injection, schedule: Q01DX009 (ip), vehicle: saline with Tween-80) 95 % of control; (dose: 3.13 mg/kg/injection, schedule: Q01DX009 (ip), vehicle: saline with Tween-80) 95 % of control; (dose: 6.25 mg/kg/injection, schedule: Q01DX009 (ip), vehicle: saline with Tween-80) 99 % of control; (dose: 11.0 mg/kg/injection, schedule: Q01DX009 (ip), vehicle: saline with Tween-80) 104 % of control; under setting [7], 99 % of control; (dose: 16.6 mg/kg/injection, schedule: Q01DX009 (ip), vehicle: saline with Tween-80) 110 % of control. Moreover, the T/C (dose: 37.5 mg/kg/injection, schedule: Q01DX009 (ip), vehicle: saline with Tween-80) was 119 % of control.
